Target: T1, GST-FAK (N-terminal GST fusion with truncated human FAK (376-1052 (end) amino acids)) (Homo sapiens, UniProt Q05397)
T1 construct: truncated human FAK (376-1052 (end) amino acids)
Experiment: Biochemical enzyme assay for FAK activity (Caliper LC3000 mobility shift)
Details: Table 3; 100 uM ATP; read-out: FAK IC50
In short: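 Inhibitor dose series in DMSO were incubated 90 min at 25 °C with truncated GST-tagged human FAK (0.067 ng/µl) and FITC-labelled peptide substrate (1 µM), with ATP at 100 µM and FERM peptide at 1 mM (pH 7.5 HEPES). After EDTA quench, phosphorylated and unphosphorylated peptides were resolved electrophoretically. Percent conversion was fitted for IC50.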

T1 sequence (Q05397 376-1052): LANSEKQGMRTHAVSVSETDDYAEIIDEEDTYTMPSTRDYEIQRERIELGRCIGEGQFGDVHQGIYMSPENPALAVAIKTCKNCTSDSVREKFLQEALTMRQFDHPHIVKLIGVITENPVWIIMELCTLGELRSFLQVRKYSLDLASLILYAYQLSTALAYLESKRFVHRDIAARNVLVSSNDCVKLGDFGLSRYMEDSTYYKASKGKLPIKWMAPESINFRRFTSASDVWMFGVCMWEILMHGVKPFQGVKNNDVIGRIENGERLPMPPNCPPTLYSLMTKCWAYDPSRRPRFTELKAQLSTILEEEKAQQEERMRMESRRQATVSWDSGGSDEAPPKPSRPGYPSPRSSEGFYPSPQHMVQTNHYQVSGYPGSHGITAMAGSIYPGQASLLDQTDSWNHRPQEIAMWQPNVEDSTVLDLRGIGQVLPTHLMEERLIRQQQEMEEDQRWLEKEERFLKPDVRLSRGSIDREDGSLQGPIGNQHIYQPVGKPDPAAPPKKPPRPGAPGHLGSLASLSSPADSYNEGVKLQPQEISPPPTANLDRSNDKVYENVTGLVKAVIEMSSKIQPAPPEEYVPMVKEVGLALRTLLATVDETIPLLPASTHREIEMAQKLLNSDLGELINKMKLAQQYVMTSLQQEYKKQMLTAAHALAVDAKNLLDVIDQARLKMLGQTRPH

| Compound | IC50 [nM] |
| --- | --- |
| Nc1ncccc1-c1nccc(NCc2cccnc2C(F)(F)F)n1 [Compound 137, 2-(2-Aminopyridin-3-yl)-N-{[2-(trifluoromethyl)pyridin-3-yl]methyl}pyrimidin-4-amine] | 1000 to 10000 |
| C[C@H](Nc1ccnc(-c2cccnc2N)n1)c1ccccc1C(F)(F)F [Compound 138, 2-(2-Aminopyridin-3-yl)-N-{(1S)-1-[2-(trifluoromethyl)phenyl]ethyl}pyrimidin-4-amine] | 1000 to 10000 |
| c1ccc(CNc2ccnc(-c3cccnc3)n2)cc1 [Compound 139, N-Benzyl-2-pyridin-3-ylpyrimidin-4-amine] | > 10000 |
| Cc1cc(NCc2cccc(C(F)(F)F)c2)nc(-c2cccnc2)n1 [Compound 140, 6-Methyl-2-pyridin-3-yl-N-[3-(trifluoromethyl)benzyl]pyrimidin-4-amine] | > 10000 |
| Cc1cc(NCc2ccccc2)nc(-c2cccnc2)n1 [Compound 141, N-Benzyl-6-methyl-2-pyridin-3-ylpyrimidin-4-amine] | > 10000 |
| Cc1cc(NCc2cccc(F)c2)nc(-c2cccnc2)n1 [Compound 142, N-(3-Fluorobenzyl)-6-methyl-2-pyridin-3-ylpyrimidin-4-amine] | > 10000 |
| CNCC(Nc1ccnc(-c2cccnc2)n1)c1ccccc1 (stereo not drawn) [Compound 143, N2-Methyl-1-phenyl-N1-(2-pyridin-3-ylpyrimidin-4-yl)ethane-1,2-diamine] | > 10000 |
| CNCC(Nc1ccnc(-c2cccnc2N)n1)c1ccccc1 (stereo not drawn) [Compound 144, N1-[2-(2-Aminopyridin-3-yl)pyrimidin-4-yl]-N2-methyl-1-phenylethane-1,2-diamine] | > 10000 |
| CNC[C@@H](Nc1ccnc(-c2cccnc2N)n1)c1cccc(F)c1 [Compound 145, (S)-N1-[2-(2-Amino-pyridin-3-yl)-pyrimidin-4-yl]-1-(3-fluoro-phenyl)-N2-methyl-ethane-1,2-diamine] | > 10000 |
| CNC[C@@H](Nc1ccnc(-c2cccnc2N)n1)c1ccccc1 [Compound 146, (S)-N1-[2-(2-Amino-pyridin-3-yl)-pyrimidin-4-yl]-N2-methyl-1-phenyl-ethane-1,2-diamine] | > 10000 |
| CNC[C@H](Nc1ccnc(-c2cccnc2N)n1)c1ccccc1 [Compound 147, (R)-N1-[2-(2-Amino-pyridin-3-yl)-pyrimidin-4-yl]-N2-methyl-1-phenyl-ethane-1,2-diamine] | > 10000 |

Same assay, conditions: Table 4; 100 uM ATP; read-out: IC50 FAK

| Compound | IC50 [nM] |
| --- | --- |
| N#Cc1cncc(-c2nccc(NCc3ccc(F)cc3F)n2)c1 [Compound 180, 5-[4-[(2,4-difluorophenyl)methylamino]pyrimidin-2-yl]pyridine-3-carbonitrile] | 100 to 1000 |
| CS(=O)(=O)n1cc(Nc2ccnc(-c3cncc(C(F)(F)F)c3)n2)cn1 [Compound 182, N-(1-methylsulfonylpyrazol-4-yl)-2-[5-(trifluoromethyl)-3-pyridyl]pyrimidin-4-amine] | 100 to 1000 |

Same assay, conditions: Table 5; 100 uM ATP; read-out: FAK IC50

| Compound | IC50 [nM] |
| --- | --- |
| Cc1ccccc1CNc1ccnc(-c2cncc(C(F)(F)F)c2)n1 [Compound 186, (2-Methyl-benzyl)-[2-(5-trifluoromethyl-pyridin-3-yl)-pyrimidin-4-yl]-amine] | 100 to 1000 |
| COc1cncc(-c2nccc(NCCc3ccccc3)n2)c1 [Compound 187, [2-(5-Methoxy-pyridin-3-yl)-pyrimidin-4-yl]-phenethyl-amine] | > 10000 |
| CC(=O)NCCNC(=O)c1cc(NCc2ncccc2F)nc(-c2cncc(C(F)(F)F)c2)n1 [Compound 189, 6-[(3-Fluoro-pyridin-2-ylmethyl)-amino]-2-(5-trifluoromethyl-pyridin-3-yl)-pyrimidine-4-carboxylic acid (2-acetylamino-ethyl)-amide] | 100 to 1000 |
| NC(=O)CNC(=O)c1cc(NCc2ncccc2F)nc(-c2cncc(C(F)(F)F)c2)n1 [Compound 190, 6-[(3-Fluoro-pyridin-2-ylmethyl)-amino]-2-(5-trifluoromethyl-pyridin-3-yl)-pyrimidine-4-carboxylic acid carbamoylmethyl-amide] | 100 to 1000 |
| FC(F)(F)c1cccc(CCNc2ccnc(-c3cncc(C(F)(F)F)c3)n2)c1 [Compound 191, [2-(3-Trifluoromethyl-phenyl)-ethyl]-[2-(5-trifluoromethyl-pyridin-3-yl)-pyrimidin-4-yl]-amine] | 1000 to 10000 |
| COc1cncc(-c2nccc(NCCc3ccc(F)cc3)n2)c1 [Compound 192, [2-(4-Fluoro-phenyl)-ethyl]-[2-(5-methoxy-pyridin-3-yl)-pyrimidin-4-yl]-amine] | 1000 to 10000 |
| COc1cncc(-c2nccc(NCc3ccccc3-c3ccccc3S(C)(=O)=O)n2)c1 [Compound 193, (2′-Methanesulfonyl-biphenyl-2-ylmethyl)-[2-(5-methoxy-pyridin-3-yl)-pyrimidin-4-yl]-amine] | > 10000 |
| COc1cncc(-c2nccc(NCCc3cccc(C(F)(F)F)c3)n2)c1 [Compound 194, [2-(5-Methoxy-pyridin-3-yl)-pyrimidin-4-yl]-[2-(3-trifluoromethyl-phenyl)-ethyl]-amine] | > 10000 |
| Fc1ccc(CCNc2ccnc(-c3cncc(C(F)(F)F)c3)n2)cc1 [Compound 195, [2-(4-Fluoro-phenyl)-ethyl]-[2-(5-trifluoromethyl-pyridin-3-yl)-pyrimidin-4-yl]-amine] | 100 to 1000 |
| CS(=O)(=O)c1ccccc1-c1ccccc1CNc1ccnc(-c2cncc(C(F)(F)F)c2)n1 [Compound 196, (2′-Methanesulfonyl-biphenyl-2-ylmethyl)-[2-(5-trifluoromethyl-pyridin-3-yl)-pyrimidin-4-yl]-amine] | 1000 to 10000 |
| CN1CCCC1CCNc1ccnc(-c2cncc(C(F)(F)F)c2)n1 (stereo not drawn) [Compound 197, [2-(1-Methyl-pyrrolidin-2-yl)-ethyl]-[2-(5-trifluoromethyl-pyridin-3-yl)-pyrimidin-4-yl]-amine] | > 10000 |
| FC(F)(F)c1cncc(-c2nccc(NCCc3ccccc3Cl)n2)c1 [Compound 198, [2-(2-Chloro-phenyl)-ethyl]-[2-(5-trifluoromethyl-pyridin-3-yl)-pyrimidin-4-yl]-amine] | 1000 to 10000 |
| COc1cncc(-c2nccc(NCCN3CCCC3=O)n2)c1 [Compound 199, 1-{2-[2-(5-Methoxy-pyridin-3-yl)-pyrimidin-4-ylamino]-ethyl}-pyrrolidin-2-one] | > 10000 |
| O=C1CCCN1CCNc1ccnc(-c2cncc(C(F)(F)F)c2)n1 [Compound 200, 1-{2-[2-(5-Trifluoromethyl-pyridin-3-yl)-pyrimidin-4-ylamino]-ethyl}-pyrrolidin-2-one] | > 10000 |
| COc1ccccc1CCNc1ccnc(-c2cncc(C(F)(F)F)c2)n1 [Compound 201, [2-(2-Methoxy-phenyl)-ethyl]-[2-(5-trifluoromethyl-pyridin-3-yl)-pyrimidin-4-yl]-amine] | 1000 to 10000 |
| COc1cncc(-c2nccc(NCCc3ccccc3OC)n2)c1 [Compound 202, [2-(2-Methoxy-phenyl)-ethyl]-[2-(5-methoxy-pyridin-3-yl)-pyrimidin-4-yl]-amine] | 1000 to 10000 |
| COc1cncc(-c2nccc(NCCc3ccccc3Cl)n2)c1 [Compound 203, [2-(2-Chloro-phenyl)-ethyl]-[2-(5-methoxy-pyridin-3-yl)-pyrimidin-4-yl]-amine] | 1000 to 10000 |
| COc1cncc(-c2nccc(NCc3ccc(F)cc3C(F)(F)F)n2)c1 [Compound 204, (4-Fluoro-2-trifluoromethyl-benzyl)-[2-(5-methoxy-pyridin-3-yl)-pyrimidin-4-yl]-amine] | < 100 |
| Fc1ccccc1CNc1ccnc(-c2cccnc2F)n1 [Compound 205, (2-Fluoro-benzyl)-[2-(2-fluoro-pyridin-3-yl)-pyrimidin-4-yl]-amine] | 1000 to 10000 |
| Cc1cc(F)ncc1-c1nccc(NCc2ccccc2F)n1 [Compound 206, (2-Fluoro-benzyl)-[2-(6-fluoro-4-methyl-pyridin-3-yl)-pyrimidin-4-yl]-amine] | > 10000 |
| Fc1ccc(-c2nccc(NCc3ccccc3F)n2)cn1 [Compound 207, (2-Fluoro-benzyl)-[2-(6-fluoro-pyridin-3-yl)-pyrimidin-4-yl]-amine] | > 10000 |
| Fc1cccnc1CNc1ccnc(-c2cncc(C(F)(F)F)c2)n1 [Compound 208, (3-Fluoro-pyridin-2-ylmethyl)-[2-(5-trifluoromethyl-pyridin-3-yl)-pyrimidin-4-yl]-amine] | 100 to 1000 |
| Fc1cnc(CNc2ccnc(-c3cncc(C(F)(F)F)c3)n2)c(F)c1 [Compound 209, (3,5-Difluoro-pyridin-2-ylmethyl)-[2-(5-trifluoromethyl-pyridin-3-yl)-pyrimidin-4-yl]-amine] | < 100 |
| Fc1ccc(CNc2ccnc(-c3cccnc3)n2)c(F)c1 [Compound 210, (2,4-Difluoro-benzyl)-(2-pyridin-3-yl-pyrimidin-4-yl)-amine] | 100 to 1000 |
| Cc1cc(F)ncc1-c1nccc(NCc2ccc(F)cc2F)n1 [Compound 211, (2,4-Difluoro-benzyl)-[2-(6-fluoro-4-methyl-pyridin-3-yl)-pyrimidin-4-yl]-amine] | > 10000 |
| Fc1ccc(CNc2ccnc(-c3cccnc3F)n2)c(F)c1 [Compound 212, (2,4-Difluoro-benzyl)-[2-(2-fluoro-pyridin-3-yl)-pyrimidin-4-yl]-amine] | 1000 to 10000 |
| N#Cc1cncc(-c2nccc(NCc3ncccc3F)n2)c1 [Compound 213, 5-{4-[(3-Fluoro-pyridin-2-ylmethyl)-amino]-pyrimidin-2-yl}-nicotinonitrile] | 1000 to 10000 |
| COc1cncc(-c2nccc(NCc3ncccc3F)n2)c1 [Compound 214, (3-Fluoro-pyridin-2-ylmethyl)-[2-(5-methoxy-pyridin-3-yl)-pyrimidin-4-yl]-amine] | 100 to 1000 |
| N#Cc1cncc(-c2ncc(C(F)(F)F)c(NCc3ccc(F)cc3F)n2)c1 [Compound 215, 5-[4-(2,4-Difluoro-benzylamino)-5-trifluoromethyl-pyrimidin-2-yl]-nicotinonitrile] | > 10000 |

Reference: patent US9199962B2, “Substituted azaheterocycles for the treatment of cancer” (Merck Patent GmbH, priority 2011, dated 2015)
